Reference: EP2582674B1 (Cymabay Therapeutics, Inc., priority 2010, dated 2011)

Each compound was assayed against T1, human GPR120 (Homo sapiens, UniProt Q5NUL3) (assay: Intracellular Ca2+ assay in human GPR120 stable cell line (FLIPR Calcium 4 dye, Flexstation)). Conditions: % activity at 2.5 µM compared to the maximal activity of the compound of Example 25 at 2.5 µM (=100%); HEK293 cells co-expressing Gqi5.
T1 construct: host or cells: HEK293 cells co-expressing Gqi5
T1 sequence (Q5NUL3 1-361): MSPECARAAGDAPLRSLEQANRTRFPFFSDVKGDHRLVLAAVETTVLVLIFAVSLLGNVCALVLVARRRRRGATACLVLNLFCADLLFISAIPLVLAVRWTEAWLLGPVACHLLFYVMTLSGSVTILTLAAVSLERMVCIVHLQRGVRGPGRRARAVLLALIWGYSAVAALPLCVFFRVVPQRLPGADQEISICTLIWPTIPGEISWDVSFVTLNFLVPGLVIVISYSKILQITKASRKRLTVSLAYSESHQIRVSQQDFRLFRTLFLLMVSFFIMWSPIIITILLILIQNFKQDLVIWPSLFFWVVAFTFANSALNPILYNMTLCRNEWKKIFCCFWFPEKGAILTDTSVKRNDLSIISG
Format: cell-based

% Activity (Ex. 25 Reference Compound) [%] | SMILES
105.8 | CC1(C)Cc2cc(F)cc(COc3ccc(C4CC4C(=O)O)cc3)c2O1 (stereo not shown) [Example 131B, 2-(4-((5-fluoro-2,2-dimethyl-2,3-dihydrobenzofuran-7-yl)methoxy)phenyl) cyclopropanecarboxylic acid]

Same assay, conditions: HEK293, % activity at 2.5 µM compared to the maximal activity of the compound of Example 25 at 2.5 µM (=100%); HEK293 cells co-expressing Gqi5; read-out: % Activity (Ex. 25 Reference Compound)

SMILES | activity at 2.5 µM [%]
Cc1cc2c(OCc3cc(F)cc4c3OC(C)(C)C4)ccc(CCC(=O)O)c2o1 [Example 125, 3-(4-((5-fluoro-2,2-dimethyl-2,3-dihydrobenzofuran-7-yl)methoxy)-2-methylbenzofuran-7-yl)propanoic acid] | 32.6
CC1(C)Cc2cc(Cl)cc(CNc3ccc(CCC(=O)O)cc3)c2O1 [Example 127, 3-(4-(((5-chloro-2,2-dimethyl-2,3-dihydrobenzofuran-7-yl)methyl)amino)phenyl) propanoic acid] | 153
CC(Cc1ccc(OCc2cc(Cl)cc3c2OC(C)(C)C3O)cc1)C(=O)O (stereo not shown) [Example 130, 3-(4-((5-chloro-3-hydroxy-2,2-dimethyl-2,3-dihydrobenzofuran-7-yl)methoxy)phenyl)-2-methylpropanoic acid] | 104
CC1(C)Cc2cc(F)cc(COc3ccc(C4CC4C(=O)O)cc3)c2O1 (stereo not shown) [Example 131A, 2-(4-((5-fluoro-2,2-dimethyl-2,3-dihydrobenzofuran-7-yl)methoxy)phenyl) cyclopropanecarboxylic acid] | 104
CC1(C)Cc2cc(F)cc(COc3ccc(CC(=O)O)cc3)c2O1 [Example 133, 2-(4-((5-fluoro-2,2-dimethyl-2,3-dihydrobenzofuran-7-yl)methoxy)phenyl)acetic acid] | 103
CCc1cc(OCc2cccc3c2CC(C)(C)O3)ccc1CCC(=O)O [Example 140, 3-(4-((2,2-dimethyl-2,3-dihydrobenzofuran-4-yl)methoxy)-2-ethylphenyl)propanoic acid] | 146
CC(Cc1ccc(OCc2cc(Cl)cc3c2OCC3(C)C)cc1)C(=O)O (stereo not shown) [Example 148, 3-(4-((5-chloro-3,3-dimethyl-2,3-dihydrobenzofuran-7-yl)methoxy)phenyl)-2-methylpropanoic acid] | 114
Cc1cc2cccc(COc3c(F)cc(CC(C)C(=O)O)cc3F)c2s1 (stereo not shown) [Example 151, 3-(3,5-difluoro-4-((2-methylbenzo[b]thiophen-7-yl)methoxy)phenyl)-2-methylpropanoic acid] | 117
Cc1cc2cccc(COc3ccc4c(c3)CCC4CC(=O)O)c2s1 (stereo not shown) [Example 152, 2-(5-((2-methylbenzo[b]thiophen-7-yl)methoxy)-2,3-dihydro-1H-inden-1-yl)acetic acid] | 83.8
CC1(C)Cc2cc(F)cc(COc3ccc4c(c3)CCCC4CC(=O)O)c2O1 (stereo not shown) [Example 153, 2-(6-((5-fluoro-2,2-dimethyl-2,3-dihydrobenzofuran-7-yl)methoxy)-1,2,3,4-tetrahydronaphthalen-1-yl)acetic acid] | 107
CC1(C)Cc2cc(Cl)cc(COc3ccc(C(C)(C)CC(=O)O)cc3)c2O1 [Example 156, 3-(4-((5-chloro-2,2-dimethyl-2,3-dihydrobenzofuran-7-yl)methoxy)phenyl)-3-methylbutanoic acid] | 149
CC(Cc1ccc(OCc2cc(Cl)cc3c2OC2(CCCC2)C3)cc1)C(=O)O (stereo not shown) [Example 159, 3-(4-((5-chloro-3H-spiro[benzofuran-2,1'-cyclopentane]-7-yl)methoxy)phenyl)-2-methylpropanoic acid] | 165
CC1(C)Cc2cc(F)cc(COc3ccc(CCCC(=O)O)cc3)c2O1 [Example 160, 4-(4-((5-fluoro-2,2-dimethyl-2,3-dihydrobenzofuran-7-yl)methoxy)phenyl)butanoic acid] | 172
CC(Cc1ccc(OCc2cc(F)cc3c2OC2(CCCC2)C3)cc1)C(=O)O (stereo not shown) [Example 162, 3-(4-((5-fluoro-3H-spiro[benzofuran-2,1'-cyclopentane]-7-yl)methoxy)phenyl)-2-methylpropanoic acid] | 154
CC1(C)Cc2cc(F)cc(COc3ccc4c(c3)CC[C@H]4CC(=O)O)c2O1 [Example 175, (S)-2-(5-((5-fluoro-2,2-dimethyl-2,3-dihydrobenzofuran-7-yl)methoxy)-2,3-dihydro-1H-inden-1-yl)acetic acid] | 152

Other lines, results leading:

activity at 2.5 µM [%] | SMILES
132 | CC(Cc1ccc(OCc2cc(OC(F)(F)F)cc3c2OC(C)(C)C3)cc1)C(=O)O (stereo not shown) [Example 124, 3-(4-((2,2-dimethyl-5-(trifluoromethoxy)-2,3-dihydrobenzofuran-7-yl)methoxy)phenyl)-2-methylpropanoic acid]
47 | CC(=O)NCCOC(=O)C(C)Cc1ccc(OCc2cc(Cl)cc3c2OC(C)(C)C3)c(C(F)(F)F)c1 (stereo not shown) [Example 126, 2-acetamidoethyl 3-(4-((5-chloro-2,2-dimethyl-2,3-dihydrobenzofuran-7-yl)methoxy)-3-(trifluoromethyl)phenyl)-2-methylpropanoate]
141 | CC1(C)Cc2cc(F)cc(COc3ccc(CCC(=O)O)c(OC(F)(F)F)c3)c2O1 [Example 136, 3-(4-((5-fluoro-2,2-dimethyl-2,3-dihydrobenzofuran-7-yl)methoxy)-2-(trifluoromethoxy)phenyl)propanoic acid]
90.6 | C[C@H](Cc1ccc(OCc2cc(Cl)cc3c2OC(C)(C)C3)c(C(F)(F)F)c1)C(=O)O [Example 143, (R)-3-(4-((5-chloro-2,2-dimethyl-2,3-dihydrobenzofuran-7-yl)methoxy)-3-(trifluoromethyl)phenyl)-2-methylpropanoic acid]
144 | [2H]C1([2H])c2cc(F)cc(COc3ccc(CC(C)C(=O)O)cc3)c2OC1(C)C (stereo not shown) [Example 145, 3-(4-((3,3-dideuterio-5-fluoro-2,2-dimethyl-2,3-dihydrobenzofuran-7-yl)methoxy)phenyl)-2-methylpropanoic acid]
141 | [2H]C1([2H])c2cc(Cl)cc(COc3ccc(CC(C)C(=O)O)cc3F)c2OC1(C)C (stereo not shown) [Example 146, 3-(4-((3,3-dideuterio-5-chloro-2,2-dimethyl-2,3-dihydrobenzofuran-7-yl)methoxy)-3-fluorophenyl)-2-methylpropanoic acid]
139 | [2H]C1([2H])c2cc(Cl)cc(COc3ccc(CC(C)C(=O)O)cc3C(F)(F)F)c2OC1(C)C (stereo not shown) [Example 147, 3-(4-((3,3-dideuterio-5-chloro-2,2-dimethyl-2,3-dihydrobenzofuran-7-yl)methoxy)-3-(trifluoromethyl)phenyl)-2-methylpropanoic acid]
99 | CC(CCc1ccc(OCc2cc(F)cc3c2OC(C)(C)C3)cc1)C(=O)O (stereo not shown) [Example 171, 4-(4-((5-fluoro-2,2-dimethyl-2,3-dihydrobenzofuran-7-yl)methoxy)phenyl)-2-methylbutanoic acid]
159 | COc1cc(CCC(=O)O)ccc1OCc1cc(F)cc2c1OC(C)(C)C2 [Example 173, 3-(4-((5-fluoro-2,2-dimethyl-2,3-dihydrobenzofuran-7-yl)methoxy)-3-methoxyphenyl)propanoic acid]

Same assay, conditions: eight concentrations from 0.00001 to 20 µM; changes (Max-Min) of fluorescence intensity

SMILES | EC50 [nM]
CC(Cc1ccc(OCc2cc(Cl)cc3c2OC(C)(C)C3O)cc1)C(=O)O (stereo not shown) [Example 130, 3-(4-((5-chloro-3-hydroxy-2,2-dimethyl-2,3-dihydrobenzofuran-7-yl)methoxy)phenyl)-2-methylpropanoic acid] | 1000 to 10000
CC1(C)Cc2cc(F)cc(COc3ccc(CC(=O)O)cc3)c2O1 [Example 133, 2-(4-((5-fluoro-2,2-dimethyl-2,3-dihydrobenzofuran-7-yl)methoxy)phenyl)acetic acid] | 1000 to 10000

Second part, the compound after the results:

EC50 [nM] | SMILES
≤ 1000 | CC(Cc1ccc(OCc2cc(OC(F)(F)F)cc3c2OC(C)(C)C3)cc1)C(=O)O (stereo not shown) [Example 124, 3-(4-((2,2-dimethyl-5-(trifluoromethoxy)-2,3-dihydrobenzofuran-7-yl)methoxy)phenyl)-2-methylpropanoic acid]
1000 to 10000 | CC(CCc1ccc(OCc2cc(F)cc3c2OC(C)(C)C3)cc1)C(=O)O (stereo not shown) [Example 171, 4-(4-((5-fluoro-2,2-dimethyl-2,3-dihydrobenzofuran-7-yl)methoxy)phenyl)-2-methylbutanoic acid]
≤ 1000 | CC(CCc1ccc(OCc2cc(Cl)cc3c2OC(C)(C)C3)cc1)C(=O)O (stereo not shown) [Example 172, 4-(4-((5-chloro-2,2-dimethyl-2,3-dihydrobenzofuran-7-yl)methoxy)phenyl)-2-methylbutanoic acid]
1000 to 10000 | COc1cc(CCC(=O)O)ccc1OCc1cc(F)cc2c1OC(C)(C)C2 [Example 173, 3-(4-((5-fluoro-2,2-dimethyl-2,3-dihydrobenzofuran-7-yl)methoxy)-3-methoxyphenyl)propanoic acid]
